System: MV-4-11 cells
Experiment: Gene expression microarray analysis (Affymetrix PrimeView) and GSEA
Format: cell-based, human
Parameters: RFU PODN (11730768_x_at) / Fold change /veh PODN (11730768_x_at) / RFU LINC00158 (11744669_a_at) / Fold change /veh LINC00158 (11744669_a_at) / RFU DUSP10 (11751237_a_at) / Fold change /veh DUSP10 (11751237_a_at) / RFU ID3 (11757404_x_at) / Fold change /veh ID3 (11757404_x_at) / RFU PLEKHG5 (11737974_s_at) / Fold change /veh PLEKHG5 (11737974_s_at) / RFU LRRC4B (11730491_at) / Fold change /veh LRRC4B (11730491_at) / RFU GIMAP4 (11747438_a_at) / Fold change /veh GIMAP4 (11747438_a_at) / RFU KRT8 (11758183_x_at) / Fold change /veh KRT8 (11758183_x_at) / RFU CNN1 (11734310_a_at) / Fold change /veh CNN1 (11734310_a_at) / RFU VPS37D (11726825_at) / Fold change /veh VPS37D (11726825_at) / RFU C10orf10 (11716522_x_at) / Fold change /veh C10orf10 (11716522_x_at) / RFU KIR2DL2 /// KIR2DL4 /// KIR2DL5A /// KIR2DL5B /// KIR2DS1 /// KIR2DS2 /// KIR2DS3 /// KIR2DS4 /// KIR3DL3 /// KIR3DL3 /// KIR3DS1 (11738374_at) / Fold change /veh KIR2DL2 /// KIR2DL4 /// KIR2DL5A /// KIR2DL5B /// KIR2DS1 /// KIR2DS2 /// KIR2DS3 /// KIR2DS4 /// KIR3DL3 /// KIR3DL3 /// KIR3DS1 (11738374_at) / RFU C1QL1 (11718748_at) / Fold change /veh C1QL1 (11718748_at) / RFU TMPRSS4 (11747572_a_at) / Fold change /veh TMPRSS4 (11747572_a_at) / RFU HAMP (11756126_x_at) / Fold change /veh HAMP (11756126_x_at) / RFU RNFT2 (11725882_a_at) / Fold change /veh RNFT2 (11725882_a_at) / RFU NR4A2 (11747474_a_at) / Fold change /veh NR4A2 (11747474_a_at) / RFU ABCC12 (11746883_a_at) / Fold change /veh ABCC12 (11746883_a_at) / RFU TMEM136 (11760407_x_at) / Fold change /veh TMEM136 (11760407_x_at) / RFU CLDN22 /// WWC2 (11732394_at) / Fold change /veh CLDN22 /// WWC2 (11732394_at) / RFU HLA-DPB1 (11760878_x_at) / Fold change /veh HLA-DPB1 (11760878_x_at) / RFU SPINT1 (11716480_a_at) / Fold change /veh SPINT1 (11716480_a_at) / RFU GAP43 (11754022_s_at) / Fold change /veh GAP43 (11754022_s_at) / RFU A4GNT (11735810_at) / Fold change /veh A4GNT (11735810_at) / RFU PRB3 (11715151_x_at) / Fold change /veh PRB3 (11715151_x_at) / RFU TUBB4B (11761932_at) / Fold change /veh TUBB4B (11761932_at) / RFU CAPN14 (11732068_a_at) / Fold change /veh CAPN14 (11732068_a_at) / RFU TMCC2 (11721928_a_at) / Fold change /veh TMCC2 (11721928_a_at) / RFU IRGQ (11745062_a_at) / Fold change /veh IRGQ (11745062_a_at) / RFU FAM174B (11720279_a_at) / Fold change /veh FAM174B (11720279_a_at) / RFU TMPRSS4 (11748680_a_at) / Fold change /veh TMPRSS4 (11748680_a_at) / RFU FAM212B (11763350_a_at) / Fold change /veh FAM212B (11763350_a_at) / RFU PLEKHG5 (11743358_a_at) / Fold change /veh PLEKHG5 (11743358_a_at) / RFU ZSCAN30 (11745921_a_at) / Fold change /veh ZSCAN30 (11745921_a_at) / RFU CMKLR1 (11741424_a_at) / Fold change /veh CMKLR1 (11741424_a_at) / RFU LOC101060620 /// MAPK8IP1 (11723275_at) / Fold change /veh LOC101060620 /// MAPK8IP1 (11723275_at) / RFU SPTSSB (11747773_x_at) / Fold change /veh SPTSSB (11747773_x_at) / RFU PRSS12 (11739890_at) / Fold change /veh PRSS12 (11739890_at) / RFU BIN1 (11741810_x_at) / Fold change /veh BIN1 (11741810_x_at) / RFU WNT11 (11732464_a_at) / Fold change /veh WNT11 (11732464_a_at) / RFU C10orf10 (11716521_a_at) / Fold change /veh C10orf10 (11716521_a_at) / RFU C5orf56 (11738089_at) / Fold change /veh C5orf56 (11738089_at) / RFU CYB561 (11721691_x_at) / Fold change /veh CYB561 (11721691_x_at) / RFU ANKRD19P (11752326_a_at) / Fold change /veh ANKRD19P (11752326_a_at) / RFU OR2T12 /// OR2T33 /// OR2T8 (11738714_s_at) / Fold change /veh OR2T12 /// OR2T33 /// OR2T8 (11738714_s_at) / RFU VCAN (11748164_a_at) / Fold change /veh VCAN (11748164_a_at) / RFU JSRP1 (11732532_at) / Fold change /veh JSRP1 (11732532_at) / RFU KRTAP10-11 (11738290_x_at) / Fold change /veh KRTAP10-11 (11738290_x_at) / RFU MYO3A (11730013_a_at) / Fold change /veh MYO3A (11730013_a_at) / RFU EBF3 (11725865_a_at) / Fold change /veh EBF3 (11725865_a_at) / RFU CAMK2N1 (11719241_x_at) / Fold change /veh CAMK2N1 (11719241_x_at) / RFU C5orf56 (11738088_a_at) / Fold change /veh C5orf56 (11738088_a_at) / RFU OLFML3 (11715873_a_at) / Fold change /veh OLFML3 (11715873_a_at) / RFU LOC100653217 /// NTM (11731650_a_at) / Fold change /veh LOC100653217 /// NTM (11731650_a_at) / RFU MAPK11 (11762145_a_at) / Fold change /veh MAPK11 (11762145_a_at) / RFU FIZ1 (11724087_x_at) / Fold change /veh FIZ1 (11724087_x_at) / RFU OASL (11726364_x_at) / Fold change /veh OASL (11726364_x_at) / RFU SOX15 (11748057_x_at) / Fold change /veh SOX15 (11748057_x_at) / RFU CD79A (11719716_a_at) / Fold change /veh CD79A (11719716_a_at) / RFU HIST1H1D (11736915_at) / Fold change /veh HIST1H1D (11736915_at) / RFU CASKIN2 (11723855_a_at) / Fold change /veh CASKIN2 (11723855_a_at) / RFU LOC730098 (11760151_x_at) / Fold change /veh LOC730098 (11760151_x_at) / RFU OR4N2 (11742367_at) / Fold change /veh OR4N2 (11742367_at) / RFU PRRT2 (11749266_a_at) / Fold change /veh PRRT2 (11749266_a_at) / RFU SNX32 (11753110_a_at) / Fold change /veh SNX32 (11753110_a_at) / RFU CDHR5 (11726645_a_at) / Fold change /veh CDHR5 (11726645_a_at) / RFU RCAN1 (11760418_a_at) / Fold change /veh RCAN1 (11760418_a_at) / RFU FAM167A (11723789_a_at) / Fold change /veh FAM167A (11723789_a_at) / RFU FAM26E (11764081_at) / Fold change /veh FAM26E (11764081_at) / RFU ISYNA1 (11749810_s_at) / Fold change /veh ISYNA1 (11749810_s_at) / RFU ACY1 (11761880_at) / Fold change /veh ACY1 (11761880_at) / RFU 11764098_at / Fold change /veh 11764098_at / RFU SAMD14 (11745864_x_at) / Fold change /veh SAMD14 (11745864_x_at) / RFU NPB (11741838_a_at) / Fold change /veh NPB (11741838_a_at) / RFU TMPRSS6 (11731388_a_at) / Fold change /veh TMPRSS6 (11731388_a_at) / RFU KRTAP10-2 (11738614_at) / Fold change /veh KRTAP10-2 (11738614_at) / RFU ARHGAP8 /// PRR5-ARHGAP8 (11727945_x_at) / Fold change /veh ARHGAP8 /// PRR5-ARHGAP8 (11727945_x_at) / RFU KRTAP5-7 /// NADSYN1 (11734609_at) / Fold change /veh KRTAP5-7 /// NADSYN1 (11734609_at) / RFU RASL12 (11751679_a_at) / Fold change /veh RASL12 (11751679_a_at) / RFU CDKN2B (11736163_a_at) / Fold change /veh CDKN2B (11736163_a_at) / RFU PRF1 (11729649_at) / Fold change /veh PRF1 (11729649_at) / RFU, ZNF638 /// ZNF638-IT1 / Fold change vs veh, ZNF638 /// ZNF638-IT1 / RFU, PANK3 / Fold change vs veh, PANK3 / RFU, SH3YL1 / Fold change vs veh, SH3YL1 / RFU, ZEB2 / Fold change vs veh, ZEB2 / RFU, NRIP1 / Fold change vs veh, NRIP1 / RFU, PTTG1IP / Fold change vs veh, PTTG1IP / RFU, CAPN2 / Fold change vs veh, CAPN2 / RFU, MED14 / Fold change vs veh, MED14 / RFU, SNORA58 / Fold change vs veh, SNORA58 / RFU, C1orf63 / Fold change vs veh, C1orf63 / RFU, LRRFIP1 / Fold change vs veh, LRRFIP1 / RFU, NDUFAF7 / Fold change vs veh, NDUFAF7 / RFU, SLC12A2 / Fold change vs veh, SLC12A2 / RFU, IBTK / Fold change vs veh, IBTK / RFU, ESF1 / Fold change vs veh, ESF1 / Fold change vs veh, TMEM50B / RFU, TAOK1 / Fold change vs veh, TAOK1 / RFU, ACBD3 / Fold change vs veh, ACBD3 / RFU, TMA16 / Fold change vs veh, TMA16 / RFU, RWDD3 / Fold change vs veh, RWDD3 / RFU, BCAT1 / Fold change vs veh, BCAT1 / RFU, EDEM3 / Fold change vs veh, EDEM3 / RFU, TMEM33 / Fold change vs veh, TMEM33 / RFU, WDR75 / Fold change vs veh, WDR75 / RFU, AHCTF1 / Fold change vs veh, AHCTF1 / RFU, TFRC / Fold change vs veh, TFRC / RFU, ZDHHC17 / Fold change vs veh, ZDHHC17 / RFU, NOM1 / Fold change vs veh, NOM1 / RFU, ARL8B / Fold change vs veh, ARL8B / RFU, ZBTB11 / Fold change vs veh, ZBTB11 / RFU, TAMM41 / Fold change vs veh, TAMM41 / RFU, KIAA1704 /// LOC100996395 / Fold change vs veh, KIAA1704 /// LOC100996395 / RFU, ING1 / Fold change vs veh, ING1 / RFU, TRMT61B / Fold change vs veh, TRMT61B / RFU, FUBP3 / Fold change vs veh, FUBP3 / RFU, TP53 / Fold change vs veh, TP53 / RFU, TNKS2 / Fold change vs veh, TNKS2 / RFU, ZFP14 / Fold change vs veh, ZFP14 / RFU, ACTR2 / Fold change vs veh, ACTR2 / RFU, PPP3R1 / Fold change vs veh, PPP3R1 / RFU, PIK3R1 / Fold change vs veh, PIK3R1 / RFU, HNRNPA1 / Fold change vs veh, HNRNPA1 / RFU, RNF170 / Fold change vs veh, RNF170 / RFU, ZNF28 / Fold change vs veh, ZNF28 / RFU, RNGTT / Fold change vs veh, RNGTT / RFU, OGT / Fold change vs veh, OGT / RFU, BRD1 / Fold change vs veh, BRD1 / RFU, MARS / Fold change vs veh, MARS / RFU, ZNF655 / Fold change vs veh, ZNF655 / RFU, FAHD1 / Fold change vs veh, FAHD1 / RFU, BDP1 / Fold change vs veh, BDP1 / RFU, LRRCC1 / Fold change vs veh, LRRCC1 / RFU, ARID1A / Fold change vs veh, ARID1A / RFU, ZNF146 / Fold change vs veh, ZNF146 / RFU, ZNF330 / Fold change vs veh, ZNF330 / RFU, GPN3 / Fold change vs veh, GPN3 / RFU, C9orf123 / Fold change vs veh, C9orf123 / RFU, N4BP2L2 / Fold change vs veh, N4BP2L2 / RFU, ARFIP1 / Fold change vs veh, ARFIP1 / RFU, FAM179B / Fold change vs veh, FAM179B / RFU, BCL10 / Fold change vs veh, BCL10 / RFU, UHRF1BP1L / Fold change vs veh, UHRF1BP1L / RFU, BET1 / Fold change vs veh, BET1 / RFU, CNOT2 / Fold change vs veh, CNOT2 / RFU, ZNF268 / Fold change vs veh, ZNF268 / Fold change vs veh, ZNF507 / RFU, DGCR2 / Fold change vs veh, DGCR2 / RFU, WDSUB1 / Fold change vs veh, WDSUB1 / Fold change vs veh, HSP90B1 /// MIR3652 / RFU, ADSS / Fold change vs veh, ADSS / RFU, GK / Fold change vs veh, GK / RFU, ZNF148 / Fold change vs veh, ZNF148 / RFU, TAF9 / Fold change vs veh, TAF9 / RFU, SLC1A5 / Fold change vs veh, SLC1A5 / RFU, SLMO2 / Fold change vs veh, SLMO2 / RFU, ABCC4 / Fold change vs veh, ABCC4 / RFU, LOC101060439 /// RAP1B / Fold change vs veh, LOC101060439 /// RAP1B / RFU, RFX7 / Fold change vs veh, RFX7 / RFU, GTPBP10 / Fold change vs veh, GTPBP10 / RFU, CNEP1R1 / Fold change vs veh, CNEP1R1 / RFU, BIVM-ERCC5 /// ERCC5 / Fold change vs veh, BIVM-ERCC5 /// ERCC5 / RFU, ILF3 / Fold change vs veh, ILF3 / RFU 11762660_at / Fold change /veh 11762660_at / RFU VCAN (11757783_s_at) / Fold change /veh VCAN (11757783_s_at) / RFU DDX43 (11728927_at) / Fold change /veh DDX43 (11728927_at) / RFU KRT8 (11758188_x_at) / Fold change /veh KRT8 (11758188_x_at) / RFU NKD1 (11759106_at) / Fold change /veh NKD1 (11759106_at) / RFU SRD5A1 (11742802_a_at) / Fold change /veh SRD5A1 (11742802_a_at) / RFU TPSAB1 /// TPSB2 (11721975_s_at) / Fold change /veh TPSAB1 /// TPSB2 (11721975_s_at) / RFU GSTM3 (11746129_a_at) / Fold change /veh GSTM3 (11746129_a_at) / RFU IL23R (11737362_x_at) / Fold change /veh IL23R (11737362_x_at) / RFU TMEM51 (11727254_a_at) / Fold change /veh TMEM51 (11727254_a_at) / RFU PIWIL2 (11732686_x_at) / Fold change /veh PIWIL2 (11732686_x_at) / RFU ORM1 (11744905_x_at) / Fold change /veh ORM1 (11744905_x_at) / RFU CCDC152 (11743942_at) / Fold change /veh CCDC152 (11743942_at) / RFU ECM1 (11717891_a_at) / Fold change /veh ECM1 (11717891_a_at) / RFU IL23R (11748794_a_at) / Fold change /veh IL23R (11748794_a_at) / RFU TNFAIP8L3 (11732012_x_at) / Fold change /veh TNFAIP8L3 (11732012_x_at) / RFU MBOAT4 (11741988_at) / Fold change /veh MBOAT4 (11741988_at) / RFU 11764193_at / Fold change /veh 11764193_at / RFU TMEM53 (11763286_at) / Fold change /veh TMEM53 (11763286_at) / RFU MAGEB2 (11727129_at) / Fold change /veh MAGEB2 (11727129_at) / RFU TMEM200A (11744735_a_at) / Fold change /veh TMEM200A (11744735_a_at) / RFU CCDC152 (11751479_a_at) / Fold change /veh CCDC152 (11751479_a_at) / RFU FAM211A (11726209_a_at) / Fold change /veh FAM211A (11726209_a_at) / RFU RGS16 (11746705_a_at) / Fold change /veh RGS16 (11746705_a_at) / RFU VCAN (11755009_s_at) / Fold change /veh VCAN (11755009_s_at) / RFU RHOB (11743442_s_at) / Fold change /veh RHOB (11743442_s_at) / RFU RGS16 (11720943_a_at) / Fold change /veh RGS16 (11720943_a_at) / RFU RGS16 (11720944_at) / Fold change /veh RGS16 (11720944_at) / RFU, VPS4B / Fold change vs veh, VPS4B / RFU, CREB1 / Fold change vs veh, CREB1 / RFU, DNAJC13 / Fold change vs veh, DNAJC13 / RFU, GNAQ / Fold change vs veh, GNAQ / RFU, CDK5R1 / Fold change vs veh, CDK5R1 / RFU, ZRANB3 / Fold change vs veh, ZRANB3 / RFU, CUL4A / Fold change vs veh, CUL4A / RFU, CCNY / Fold change vs veh, CCNY / RFU, UFL1 / Fold change vs veh, UFL1 / RFU, COG3 / Fold change vs veh, COG3 / RFU, DIAPH2 / Fold change vs veh, DIAPH2 / RFU, SKA2 / Fold change vs veh, SKA2 / RFU, AFF3 / Fold change vs veh, AFF3 / RFU, LMF1 / Fold change vs veh, LMF1 / RFU, IPO11 / Fold change vs veh, IPO11 / RFU, DFFB / Fold change vs veh, DFFB / RFU, FOXP1 / Fold change vs veh, FOXP1 / RFU, CARD8 / Fold change vs veh, CARD8 / RFU, STRN3 / Fold change vs veh, STRN3 / RFU, ADK / Fold change vs veh, ADK / RFU, RASSF2 / Fold change vs veh, RASSF2 / RFU, WIPF1 / Fold change vs veh, WIPF1 / RFU, LARP1B / Fold change vs veh, LARP1B / RFU, RASA1 / Fold change vs veh, RASA1 / RFU, RB1 / Fold change vs veh, RB1 / RFU, PPFIA1 / Fold change vs veh, PPFIA1 / RFU, MAT2A / Fold change vs veh, MAT2A / RFU, CCT5 / Fold change vs veh, CCT5 / RFU, WDR92 / Fold change vs veh, WDR92 / RFU, CUX1 / Fold change vs veh, CUX1 / RFU, TTC7A / Fold change vs veh, TTC7A / RFU, TMEM135 / Fold change vs veh, TMEM135 / RFU, DEPTOR / Fold change vs veh, DEPTOR / RFU, CPM / Fold change vs veh, CPM / RFU, DNAJB6 / Fold change vs veh, DNAJB6 / RFU, CACNA2D3 / Fold change vs veh, CACNA2D3 / RFU, DTX4 / Fold change vs veh, DTX4 / RFU, TFCP2 / Fold change vs veh, TFCP2 / RFU, GMCL1 /// GMCL1P1 / Fold change vs veh, GMCL1 /// GMCL1P1 / RFU, AEBP2 / Fold change vs veh, AEBP2 / RFU, SNHG1 /// SNORD22 /// SNORD25 /// SNORD26 /// SNORD27 /// SNORD28 /// SNORD29 /// SNORD31 / Fold change vs veh, SNHG1 /// SNORD22 /// SNORD25 /// SNORD26 /// SNORD27 /// SNORD28 /// SNORD29 /// SNORD31 / Fold change (Aza/veh), C12orf56 (ProbeSet 11735607_a_at) / Fold change (ACY-1035/veh), C12orf56 (ProbeSet 11735607_a_at) / Fold change (Aza/veh), FGFR1OP (ProbeSet 11751329_s_at) / Fold change (ACY-1035/veh), FGFR1OP (ProbeSet 11751329_s_at) / Fold change (Aza/veh), VPS36 (ProbeSet 11739960_a_at) / Fold change (ACY-1035/veh), VPS36 (ProbeSet 11739960_a_at) / RFU SYPL1 (11715823_x_at) / Fold change /veh SYPL1 (11715823_x_at) / RFU IGFBP7 (11715501_s_at) / Fold change /veh IGFBP7 (11715501_s_at) / RFU REEP3 (11722064_at) / Fold change /veh REEP3 (11722064_at) / RFU IGLL1 (11728026_x_at) / Fold change /veh IGLL1 (11728026_x_at): dose or concentration left out as unconfirmed
Settings: ProbeSet 11758919_x_at; LIST D

Nc1ccc(-c2cccs2)cc1NC(=O)c1ccc2c(c1)cc(C1CC1)n2CCN1CCOCC1 [ACY-1035]
RFU, TFCP2: 87.13 RFU
